Data: patent US5436243A, “Aminoanthraquinone derivatives to combat multidrug resistance” (priority 1993, dated 1995)

Experiments:
[1] = biological target: P-glycoprotein in MCF7 Adr 10 membrane vesicles (Homo sapiens, UniProt P08183); assay: biochemical; conditions: read-out: decrease of specific binding of [3H] VLB
MCF7 Adr 10 = assay: Tumor cell clonogenic assay, MCF7 ADR 10; type: cell-based, human
[2] = system: MCF7 Adr 10 human breast cancer cells; assay: Time course of accumulation of anthraquinones in cells; type: cell-based; conditions: 25 μM, 37° C., MCF7 Adr 10 cells
Protocol: METHOD: Near confluent monolayers of MCF7 ADR 10 were washed 2 times with Dulbecco's Phosphate Buffered Saline (DPBS) and 1 ml of Iscove's Modified Dulbecco's Medium (IMDM) was added to each well. The monolayers were treated with 25 μM 1b or 1c and incubated at 37° C. After incubating the samples for the times indicated in FIG. 1, the monolayers were washed three times with DPBS and detached using 1 ml of Trypsin-EDTA.An aliquot of the cell suspension was counted using a Coulter Counter and a 0.8 ml aliquot was extracted in a Bligh-Dyer extraction (Bligh et at., Can. J. Biochem. 31:911-916 (1959)). The absorbance of the lower chloroform phase was measured at 648 nm and 600 nm using a spectrophotometer. The amount of 1b or 1c present in the extract was quantitated from a standard curve performed in cell extracts. The data is expressed as nmol anthraquinone/10^6 cells.

other phosphoproteins = assay: Overall phosphoprotein changes in cell extracts; type: cell-based
Description: (§1) One possible explanation for stimulation of phosphorylation of P-glycoprotein and MARCKS is that 1c may activate PKC or other cellular kinases by signal transduction pathways that have not yet been identified to phosphorylate these proteins. An alternative explanation for stimulation of phosphorylation of P-glycoprotein and MARCKS is that 1c inhibits protein phosphatases.

[3] = system: catalytic subunits of protein kinase A; assay: Protein kinase A catalytic subunit inhibition; type: biochemical
Description: as §1

[4] = system: granulocyte-macrophage progenitors (CFU-GM); assay: cells
Protocol: (§2) Myelosuppression is often a dose limiting side effect of chemotherapeutic agents. […] The toxicities to human granulocyte-macrophage progenitors (CFU-GM) of 1b, 1c, and VLB was assessed by measuring inhibition of CFU-GM proliferation in cultures continuously exposed to each agent alone and compared to the toxicities to sensitive and resistant MCF7 in tumor cell clonogenic assays.
(§3) METHOD: The CFLI-GM assay measures clonal proliferation of granulocyte/macrophage precursors in semisolid agar cultures. The progeny of the granulocyte/macrophage precursors remain in proximity of the progenitor cells and form colonies. Colonies which contain greater than 40 cells after 10-12 days of culture are counted using an inverted phase contrast microscope. The tumor cell clonogenic assays measure clonal proliferation of tumor cells. In this assay, 300-500 cells are plated in 10 cm^2 wells, allowed to adhere overnight, and are treated the following day. Tumor cell colonies were counted after 10-12 days of culture. The times of exposure in these experiments are similar; however, the concentrations of FCS are 20% in the CFU-GM assay and 10% in the tumor cell clonogenic assays. The IC50's are calculated as described above for the MTT proliferation assays. (See Example 4).
(§4) To facilitate this comparison, a CFLI-GM toxicity index was calculated by dividing the CFU-GM IC50 by the respective tumor cell clonogenic IC50's in sensitive and resistant cells.

in vitro = conditions: human
Protocol: as §2, §3, §4

calmodulin kinase = assay: Calmodulin kinase inhibition; type: biochemical
Description: as §1

[5] = system: UOK-39 human renal cell line; assay: Vinblastine accumulation assay, UOK-39; type: cell-based; conditions: 10 μM, 10 nM [3H] vinblastine
Protocol: (§5) These cell lines are models of intrinsic resistance.
(§6) [^3 H] vinblastine was added to a final concentration of 10 nM and the cells were incubated for 2.5 hours. At this time, the cells were washed 3 times in ice cold PBS and lysed in buffer containing 0.1% Triton X-100.

MCF7 WT = assay: 72 hour MTT proliferation assay, potentiation of sensitivity in MCF7 WT; type: cell-based, human; conditions: MCF7 WT
Protocol: In 72 hour MTT proliferation assays using the following method, compounds 1b, 1c and 1d were assessed for inhibition of Vinca alkaloid and anthracycline drug resistance in MDR MCF7. Additionally, compounds 1b and 1c were assessed for potentiation of sensitivity to Vinca alkaloid and anthracycline drugs in the parental MCF7 WT cell line.
METHOD: 5000 cells per well were plated in 100 μl of IMDM containing 10% FCS and allowed to adhere overnight. The following day the cells were treated with N-substituted 1,4-diaminoanthraquinones and exposed to graded concentrations of antineoplastic agents. 50 μl of IMDM 10% FCS containing either vehicle or N-substituted 1,4-diaminoanthraquinones at 3 times the final tested concentration was added to cells at timed intervals. The plates were incubated for 2 hours at 37° C. to allow maximal cellular accumulation of N-substituted 1,4-diaminoanthraquinones. 40 μl aliquots of IMDM 10% FCS containing either vehicle or graded concentrations of antineoplastic drugs at 5 times the final concentration were added to treatment groups. Following this addition, 10 μl of IMDM 10% FCS containing either vehicle or N-substituted 1,4-diaminoanthraquinone at 5 times the final concentration was added to each group of wells. The cells were incubated for 72 hours after treatment. At this time the viable cells in each treatment group were estimated in a colorimetric assay by adding MTT and incubating the cells at 37° C. for 3-4 hours. The media in each well was aspirated and MTT formazan was solubilized in isopropyl alcohol acidified with 0.1 N HCl. The absorbance of the solubilized formazan was quantitated using a plate reader spectrophotometer. […] The concentrations of antineoplastic drugs which inhibited proliferation by 50% (IC50's) were estimated by calculating a percentage from the ratio: antineoplastic drug treated groups/control group absorbance and plotting the dose response curve on semilog paper. The IC50 was estimated from this curve. To assess the effects of inhibition of resistance by N-substituted 1,4-diaminoanthraquinones, the percentages were calculated relative to cell groups treated with resistance modifier alone and IC50's calculated as above. A reversal factor was calculated by dividing the IC50 to the antineoplastic drug alone (Control group) by the IC50 to antineoplastic drug in cells treated with resistance modifier.

[6] = system: SKRC7 human renal cell line; assay: Vinblastine accumulation assay, SKRC7; type: cell-based; conditions: 10 μM, 10 nM [3H] vinblastine
Protocol: as §5, §6

casein kinase 2 = assay: Casein kinase 2 inhibition; type: biochemical
Description: as §1

P-glycoprotein in MCF7 Adr 10 membrane vesicles, sequence (P08183 whole entry): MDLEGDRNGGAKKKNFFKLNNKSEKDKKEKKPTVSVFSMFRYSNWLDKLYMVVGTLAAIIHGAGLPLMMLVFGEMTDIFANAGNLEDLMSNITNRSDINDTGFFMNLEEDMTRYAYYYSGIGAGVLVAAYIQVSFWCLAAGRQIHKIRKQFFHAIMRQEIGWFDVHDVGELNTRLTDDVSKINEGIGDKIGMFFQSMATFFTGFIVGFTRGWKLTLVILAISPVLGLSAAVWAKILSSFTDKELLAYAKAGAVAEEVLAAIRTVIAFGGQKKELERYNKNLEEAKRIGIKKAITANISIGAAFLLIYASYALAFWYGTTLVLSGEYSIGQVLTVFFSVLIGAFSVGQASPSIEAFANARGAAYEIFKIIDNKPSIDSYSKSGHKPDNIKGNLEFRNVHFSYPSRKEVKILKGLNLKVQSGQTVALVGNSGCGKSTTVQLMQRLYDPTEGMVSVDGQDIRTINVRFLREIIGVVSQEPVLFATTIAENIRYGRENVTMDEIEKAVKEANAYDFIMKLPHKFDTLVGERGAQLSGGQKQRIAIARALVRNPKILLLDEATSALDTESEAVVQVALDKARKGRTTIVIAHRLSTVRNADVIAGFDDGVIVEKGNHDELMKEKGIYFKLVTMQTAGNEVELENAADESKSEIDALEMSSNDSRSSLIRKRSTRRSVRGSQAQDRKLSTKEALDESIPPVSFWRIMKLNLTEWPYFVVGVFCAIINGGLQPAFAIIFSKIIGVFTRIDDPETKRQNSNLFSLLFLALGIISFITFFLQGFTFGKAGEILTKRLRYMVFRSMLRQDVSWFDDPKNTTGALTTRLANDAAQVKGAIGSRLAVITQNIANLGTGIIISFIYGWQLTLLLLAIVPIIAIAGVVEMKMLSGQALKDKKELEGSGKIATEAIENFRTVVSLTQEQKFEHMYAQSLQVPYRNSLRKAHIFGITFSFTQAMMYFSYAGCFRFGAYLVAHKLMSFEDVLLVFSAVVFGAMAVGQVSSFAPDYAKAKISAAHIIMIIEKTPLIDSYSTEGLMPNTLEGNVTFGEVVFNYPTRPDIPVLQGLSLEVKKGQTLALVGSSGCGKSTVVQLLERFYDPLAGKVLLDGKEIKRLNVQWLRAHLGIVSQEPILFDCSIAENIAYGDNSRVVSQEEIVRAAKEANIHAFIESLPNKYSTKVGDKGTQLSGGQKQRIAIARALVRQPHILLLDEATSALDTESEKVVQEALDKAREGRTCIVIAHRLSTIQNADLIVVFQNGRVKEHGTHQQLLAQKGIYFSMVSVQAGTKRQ

Work on O=C1c2ccccc2C(=O)c2c(NCCCN3CCOCC3)ccc(NCCCN3CCOCC3)c21 [Compound 1c, 1,4-bis-[[3'(4-morpholino)propyl]amino]anthraquinone] yielded an inhibition at 5 µM [1] of 29%, an inhibition at 10 µM [1] of 42% and an inhibition at 25 µM [1] of 69%. The IC50 (MCF7 Adr 10; Homo sapiens, NCI/ADR-RES, tumor cell clonogenic assay, 10-12 days, read-out: Continuous Exposure IC50, MCF7 ADR 10) was 0.4 µM, the “antiproliferative effect relative to human CFU-GM” value (MCF7 Adr 10; MDR cancer cells, clonal proliferation assays) was about 20 times and the “relative sensitivity of MCF7 WT and MDR MCF7 to cytotoxicity” value (MCF7 Adr 10; clonogenic assays) was “MDR MCF7 are twice as sensitive to 1c cytotoxicity as MCF7 WT”. The “time of maximal accumulation of 1b and 1c” value [2] was “about 2 hours”, the “phosphorylation of other phosphoproteins” value (other phosphoproteins) was “did not significantly alter phosphorylation of other phosphoproteins” and the “protein kinase A inhibitory activity” value [3] was “did not inhibit”. For the same compound, the IC50 ([4]; Homo sapiens, CFU-GM, read-out: Continuous Exposure IC50, CFU-GM) was 7.8 µM, the “CFU-GM Toxicity Index (CFU-GM IC50 / Tumor Cell Clonogenic IC50)” value ([4]; human) was 19.5 and the selectivity ratio (in vitro; CFU-GM Toxicity Index (CFU-GM IC50 / Tumor Cell Clonogenic IC50)) was 9.8. For the same compound, the selectivity ratio (in vitro; cfu-gm vs mcf7, lower sensitivity of CFU-GM than drug sensitive (WT) and MDR cancer cell lines) was 10 to 20, the “calmodulin kinase inhibitory activity” value (calmodulin kinase) was “did not inhibit” and the “vinblastine accumulation relative to verapamil” value [5] was “comparable or superior to verapamil activity”. For the same compound, the “effect on toxicity of vincristine in drug sensitive cells” value (MCF7 WT) was “enhances toxicity of vincristine in drug sensitive cells”, the “Reversal Factor (VCR)” value (MCF7 WT; [1c] 1.0 μM) was 1.9 and the “vinblastine accumulation relative to verapamil” value [6] was “comparable or superior to verapamil activity”. For the same compound, the “casein kinase 2 inhibitory activity” value (casein kinase 2) was “did not inhibit”.
